How the values were obtained:
[1] = target: Kappa-type opioid receptor (Cavia porcellus, UniProt P41144); assay: Affinity at K opioid receptor on membranes prepared from guinea pig cerebellum by [3H]- 69593 displacement.; format: tissue-based
Mu-type opioid receptor = Mu-type opioid receptor (Rattus norvegicus, UniProt P33535); assay: Affinity to mu opioid receptor determined in the presence of [3H]- PL 017 using membranes prepared from rat cerebrum
[2] = target: Delta-type opioid receptor (Rattus norvegicus, UniProt P33533); assay: Affinity to delta opioid receptor determined in the presence of [3H]- [D-Pen2,5]enkephalin using membranes prepared from rat cerebrum
Chain of Delta-type opioid receptor (P33533 whole entry): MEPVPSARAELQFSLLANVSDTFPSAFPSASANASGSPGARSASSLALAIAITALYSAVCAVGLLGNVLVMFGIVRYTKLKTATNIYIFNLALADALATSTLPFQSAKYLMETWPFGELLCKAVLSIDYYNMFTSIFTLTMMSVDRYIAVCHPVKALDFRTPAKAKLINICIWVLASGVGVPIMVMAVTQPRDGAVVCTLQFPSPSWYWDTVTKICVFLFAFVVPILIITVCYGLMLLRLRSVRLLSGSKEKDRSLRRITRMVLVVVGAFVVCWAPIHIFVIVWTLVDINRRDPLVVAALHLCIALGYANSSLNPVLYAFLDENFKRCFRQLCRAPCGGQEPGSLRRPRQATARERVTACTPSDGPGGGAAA

Mus musculus [3] = assay: Inhibitory dose (sc) in the formalin test in mice at late phase; format: functional; details: read-out: ID50 (the source's name)
Mus musculus [4] = assay: Inhibitory dose (sc) in the formalin test in mice at early phase; format: functional; details: read-out: ID50 (the source's name)

Chain of Kappa-type opioid receptor (P41144 whole entry): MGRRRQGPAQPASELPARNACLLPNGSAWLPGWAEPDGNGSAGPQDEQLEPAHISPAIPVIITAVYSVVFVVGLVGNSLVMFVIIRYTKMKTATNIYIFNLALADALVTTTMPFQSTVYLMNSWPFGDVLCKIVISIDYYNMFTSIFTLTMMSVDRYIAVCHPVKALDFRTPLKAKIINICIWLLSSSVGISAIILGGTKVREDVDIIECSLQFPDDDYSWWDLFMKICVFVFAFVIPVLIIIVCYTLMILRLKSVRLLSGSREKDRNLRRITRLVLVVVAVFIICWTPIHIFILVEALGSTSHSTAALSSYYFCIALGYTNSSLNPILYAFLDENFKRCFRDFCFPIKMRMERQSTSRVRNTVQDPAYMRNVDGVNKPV
Chain of Mu-type opioid receptor (P33535 whole entry): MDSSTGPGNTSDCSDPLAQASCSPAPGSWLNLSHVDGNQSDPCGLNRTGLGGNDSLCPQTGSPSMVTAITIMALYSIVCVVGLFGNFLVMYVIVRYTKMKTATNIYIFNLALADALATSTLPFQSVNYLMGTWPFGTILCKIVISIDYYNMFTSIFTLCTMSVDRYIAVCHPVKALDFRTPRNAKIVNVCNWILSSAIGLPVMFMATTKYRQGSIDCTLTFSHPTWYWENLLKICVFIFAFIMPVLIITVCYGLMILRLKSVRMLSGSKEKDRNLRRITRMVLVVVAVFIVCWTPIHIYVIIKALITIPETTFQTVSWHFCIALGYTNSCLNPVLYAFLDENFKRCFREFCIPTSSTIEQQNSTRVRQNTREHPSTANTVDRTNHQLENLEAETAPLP

SMILES	Ki ([1]; read-out: Ki)	Ki (Mu-type opioid receptor)	Ki [2]	Ki [1]	ED50 (Mus musculus [3])	ED50 (Mus musculus [4])
COc1ccc([C@@H](CN2CC[C@H](O)C2)N(C)C(=O)C(c2ccccc2)c2ccccc2)cc1	7 nM	–	–	–	–	–
CN(C(=O)C1c2ccccc2Cc2ccccc21)[C@H](CN1CC[C@H](O)C1)c1ccccc1	4 nM	> 100 nM	> 100 nM	–	–	–
CN(C(=O)C(c1ccccc1)c1ccccc1)[C@H](CN1CC[C@H](O)C1)c1cccc([N+](=O)[O-])c1.Cl	–	–	–	20 nM l-1	–	–
CN(C(=O)C(c1cccs1)c1cccs1)[C@H](CN1CC[C@H](O)C1)c1ccccc1	4 nM	> 100 nM	> 100 nM	–	–	–
CN(C(=O)C(c1ccc(F)cc1)c1ccc(F)cc1)[C@H](CN1CC[C@H](O)C1)c1ccccc1	7 nM	> 100 nM	> 100 nM	–	–	–
CN(C(=O)C(c1ccccc1)c1ccccc1)[C@H](CN1CC[C@H](O)C1)c1ccc(O)cc1	6 nM	–	–	–	–	–
Cc1ccc(C(C(=O)N(C)[C@H](CN2CC[C@H](O)C2)c2ccccc2)c2ccc(C)cc2)cc1.Cl	–	> 100 nM	> 100 nM	20 nM l-1	–	–
CN(C(=O)C(c1ccccc1)C1CCCCC1)[C@H](CN1CC[C@H](O)C1)c1ccccc1 (stereo in doubt; form 2)	10 nM	> 100 nM	> 100 nM	–	–	–
CN(C(=O)C1c2ccccc2-c2ccccc21)[C@H](CN1CC[C@H](O)C1)c1ccccc1	6 nM	40 nM	60 nM	–	–	–
CN(C(=O)C(c1ccc(Cl)cc1)c1ccc(Cl)cc1)[C@H](CN1CC[C@H](O)C1)c1ccccc1	5 nM	> 100 nM	> 100 nM	–	–	–
CN(C(=O)C(c1ccccc1)c1ccccc1)[C@H](CN1CC[C@H](O)C1)c1cccc(N)c1	6 nM	–	–	–	–	–
CN(C(=O)C(c1ccccc1)C1CCCCC1)[C@H](CN1CC[C@H](O)C1)c1ccccc1 (stereo in doubt; form 1)	10 nM	> 100 nM	> 100 nM	–	–	–
CN(C(=O)C1c2ccccc2Oc2ccccc21)[C@H](CN1CC[C@H](O)C1)c1ccccc1	4 nM	> 100 nM	> 100 nM	–	–	–
CN(C(=O)C1c2ccccc2CCc2ccccc21)[C@H](CN1CC[C@H](O)C1)c1ccccc1.Cl	–	> 100 nM	> 100 nM	20 nM l-1	–	–
CN(C(=O)C(c1ccccc1)c1ccccc1)[C@H](CN1CC[C@H](O)C1)c1ccccc1.Cl [ASIMADOLINE HYDROCHLORIDE]	–	> 100 nM	> 100 nM	–	0.24 mg/kg	> 2 mg/kg
CN1CC[C@]23c4c5ccc(O)c4O[C@H]2[C@@H](O)C=C[C@H]3[C@H]1C5 [MORPHINE]	–	–	–	–	3.4 mg/kg	1.7 mg/kg
CC(C)[C@@H](CN1CCCC1)N(C)C(=O)Cc1ccc(Cl)c(Cl)c1	–	–	–	–	0.02 mg/kg	0.04 mg/kg
CC(=O)Nc1cccc([C@@H](CN2CC[C@H](O)C2)N(C)C(=O)C(c2ccccc2)c2ccccc2)c1	6 nM	–	–	–	–	–
CN(C(=O)C1c2ccccc2Sc2ccccc21)[C@H](CN1CC[C@H](O)C1)c1ccccc1	10 nM	> 100 nM	> 100 nM	–	–	–
